We go through 35 compounds from patent US20160002217A1, “FUNGICIDAL 3--OXADIAZOLONE DERIVATIVES” (BAYER CROPSCIENCE AG, priority 2013, published 2016).

Like-named read-outs stand apart in the source and are kept apart here. Marks after values point to notes of the source that are not given here.

Series [1] in a line: Measurement of log P values by HPLC on reversed phase columns (EEC directive 79/831 Annex V.A8). The conditions noted are these: for chromatographic logP: pH 2.7; for LogP: Table 1, compounds of formula (I), method [a]: LC-MS at pH 2.7, 0.1% formic acid in water / acetonitrile gradient.
Series [2] deals with Alternaria brassicae. Nature of the series: In vivo preventive test on Alternaria brassicae (leaf spot on radish). The conditions noted are these: radish plants, preventive spray, 500 ppm of active ingredient, evaluated 6 days after inoculation. As to the method:
(§1) The tested active ingredients are prepared by homogenization in a mixture of acetone/Dimethyl sulfoxide/Tween®, and then diluted with water to obtain the desired active material concentration.
The young plants of radish are treated by spraying the active ingredient prepared as described above. Control plants are treated only with an aqueous solution of acetone/Dimethyl sulfoxide/Tween®.
After 24 hours, the plants are contaminated by spraying the leaves with an aqueous suspension of Alternaria brassicae spores. The contaminated radish plants are incubated for 6 days at 20° C. and at 100% relative humidity.
The test is evaluated 6 days after the inoculation. 0% means an efficacy which corresponds to that of the control plants while an efficacy of 100% means that no disease is observed.

The conditions of series [3]: pH 2.7.
For series [4], the system named is Phytophthora infestans. The format is in vivo. The conditions noted are these: tomato plants, preventive spray, 500 ppm of active ingredient, evaluated 5 days after inoculation.
The subject of series [5] is Pyrenophora teres. Description: In vivo preventive test on Pyrenophora teres (net blotch on barley). The conditions noted are these: barley plants, preventive spray, 500 ppm of active ingredient, evaluated 14 days after inoculation. As to the method: as §1
The young plants of barley are treated by spraying the active ingredient prepared as described above. Control plants are treated only with an aqueous solution of acetone/Dimethyl sulfoxide/Tween®.
After 24 hours, the plants are contaminated by spraying the leaves with an aqueous suspension of Pyrenophora teres spores. The contaminated barley plants are incubated for 48 hours at 20° C. and at 100% relative humidity and then for 12 days at 20° C. and at 70-80% relative humidity.
The test is evaluated 14 days after the inoculation. 0% means an efficacy which corresponds to that of the control plants while an efficacy of 100% means that no disease is observed.

In series [6] the test system is Septoria tritici. Nature of the series: In vivo preventive test on Septoria tritici (leaf spot on wheat). The conditions noted are these: wheat plants, preventive spray, 500 ppm of active ingredient, evaluated 24 days after inoculation. As to the method:
as §1
The young plants of wheat are treated by spraying the active ingredient prepared as described above. Control plants are treated only with an aqueous solution of acetone/Dimethyl sulfoxide/Tween®.
After 24 hours, the plants are contaminated by spraying the leaves with an aqueous suspension of Septoria tritici spores. The contaminated wheat plants are incubated for 72 hours at 18° C. and at 100% relative humidity and then for 21 days at 20° C. and at 90% relative humidity.
The test is evaluated 24 days after the inoculation. 0% means an efficacy which corresponds to that of the control plants while an efficacy of 100% means that no disease is observed.

Series [7] has as its system Plasmopara viticola. Nature of the series: Plasmopara test (grapevines) / preventive. It is filed as in vivo. The conditions noted are these: grapevine plants, preventive spray, 10 ppm of active ingredient, evaluated 6 days after inoculation. As to the method: Solvent: 24.5 parts by weight of acetone • 24.5 parts by weight of dimethylacetamide
Emulsifier: 1 part by weight of alkylaryl polyglycol ether
To produce a suitable preparation of active compound, 1 part by weight of active compound is mixed with the stated amounts of solvent and emulsifier, and the concentrate is diluted with water to the desired concentration.
To test for preventive activity, young plants are sprayed with the preparation of active compound at the stated rate of application. After the spray coating has dried on, the plants are inoculated with an aqueous spore suspension of Plasmopara viticola and then remain for 1 day in an incubation cabinet at approximately 20° C. and a relative atmospheric humidity of 100%. The plant is subsequently placed for 4 days in a greenhouse at approximately 21° C. and a relative atmospheric humidity of approximately 90%. The plants are then misted and placed for 1 day in an incubation cabinet.
The test is evaluated 6 days after the inoculation. 0% means an efficacy which corresponds to that of the untreated control, while an efficacy of 100% means that no disease is observed.

A word on the chromatographic logP: it is a lipophilicity value derived from retention on a column. Read a high chromatographic logP as higher lipophilicity. `Cn1oc(=O)nc1/C(=N\OCc1cccc(N)n1)c1ccccn1` [Example 9, 3-[(Z)-{[(6-aminopyridin-2-yl)methoxy]imino}(pyridine-2-yl)methyl]-2-methyl-1,2,4-oxadiazol-5(2H)-one]: the chromatographic logP in series [1] is 0.41.

Take `Cn1c(C(=NOCc2cccc(NC(=O)OC(C)(C)C)n2)c2ccccn2)noc1=O` [Example 13]: the “% efficacy” value in series [2] turned out to be 91%; in series [4], 98%; in series [5], 77%; in series [6] it was 75%. For the same compound, the LogP in series [3] is 3.17^[a]. `Cn1c(C(=NOCc2csc(NC(=O)OC(C)(C)C)n2)c2ccsc2)noc1=O` [Example 16]: in series [3], the LogP is 3.39^[a]. The “% efficacy” value in series [7] is reported as 99%; in series [4], 100%. `C#CCCOC(=O)Nc1cccc(CO/N=C(/c2ccccn2)c2nc(=O)on2C)n1` [Example 17, But-3-yn-1-yl {6-[({[(Z)-(2-methyl-5-oxo-2,5-dihydro-1,2,4-oxadiazol-3-yl)(pyridine-2-yl)methylene]amino}oxy)methyl]pyridin-2-yl}carbamate] displayed a chromatographic logP in series [1] of 2.1. For `C#CCCOC(=O)Nc1cccc(CON=C(c2ccccn2)c2nc(=O)on2CC)n1` [Example 19], in series [1], the LogP is 2.35^[a]. Consider `Cn1c(C(=NOCc2csc(N)n2)c2ccsc2)noc1=O` [Example 23], for which the “% efficacy” value in series [4] worked out at 98%. Also, the LogP in series [1] is 1.35^[a]. For `CC(C)(C)OC(=O)Nc1cccc(CON=C(c2cccnc2)c2noc(=O)[nH]2)n1` [Example 32, tert-butyl {6-[({[(5-oxo-4,5-dihydro-1,2,4-oxadiazol-3-yl)(pyridin-3-yl)methylene]amino}oxy)methyl]pyridin-2-yl}carbamate], in series [1], the chromatographic logP turned out to be 2.59.

With `Cn1c(C(=NOCc2cccc(NC(=O)OC(C)(C)C)n2)c2cccnc2)noc1=O` [Example 33, tert-butyl {6-[({[(4-methyl-5-oxo-4,5-dihydro-1,2,4-oxadiazol-3-yl)(pyridin-3-yl)methylene]amino}oxy)methyl]pyridin-2-yl}carbamate], the “% efficacy” value in series [4] turned out to be 78%. Moreover, in series [1], the chromatographic logP turned out to be 2.75. For the compound `Cn1c(C(=NOCc2csc(NC(=O)OC(C)(C)C)n2)c2cccs2)noc1=O` [Example 42], the LogP in series [3] is 3.35^[a]. In series [4], the “% efficacy” value is 93%. Take `CCCCCOC(=O)Nc1cccc(CON=C(c2ccncc2)c2noc(=O)n2C)n1` [Example 44]: the “% efficacy” value in series [4] stood at 98%. Moreover, the LogP in series [1] is 3.29^[a]. For the compound `C#CCCOC(=O)Nc1cccc(CON=C(c2ccncc2)c2noc(=O)n2C)n1` [Example 45], the LogP in series [3] was 2.21^[a]. Besides, the entries for the “% efficacy” value in series [7] and in series [4] were 91% and 100%, respectively. `CCCCCOC(=O)Nc1cccc(CON=C(c2cccnc2)c2noc(=O)n2C)n1` [Example 49]: the LogP in series [3] was 3.37^[a]. For the same compound, the “% efficacy” value in series [4] is 99%. The like results for `CCCCOC(=O)Nc1cccc(CON=C(c2cccnc2)c2noc(=O)n2C)n1` [Example 50] were, in that order, 2.98^[a] and 100%. The like results for `C#CCCOC(=O)Nc1cccc(CON=C(c2cccnc2)c2noc(=O)n2C)n1` [Example 51] were, in that order, 2.32^[a] and 90%.

For `CCCCCOC(=O)Nc1cccc(CON=C(c2ncccn2)c2noc(=O)n2C)n1` [Example 52], in series [3], the LogP is 3.06^[a]. Further, in series [4], the “% efficacy” value stood at 88%. On to `CCCCOC(=O)Nc1cccc(CON=C(c2ncccn2)c2noc(=O)n2C)n1` [Example 53], for which the LogP in series [3] was 2.68^[a]. Besides, in series [4], the “% efficacy” value came out at 85%. The like results for `CCCCCOC(=O)Nc1cccc(CON=C(c2cccnc2)c2nc(=O)on2C)n1` [Example 55] were, in that order, 2.84^[a] and 92%. For `C#CCCOC(=O)Nc1cccc(CON=C(c2cccnc2)c2nc(=O)on2C)n1` [Example 56] the same measures were 1.88^[a] and 89%. For the compound `CCCCOC(=O)Nc1cccc(CON=C(c2cccnc2)c2nc(=O)on2C)n1` [Example 57], in series [3], the LogP is 2.47^[a]. The “% efficacy” value in series [4] worked out at 95%.

For the compound `CCCCC(=O)Nc1cccc(CON=C(c2cccnc2)c2noc(=O)n2C)n1` [Example 59], the LogP in series [3] was 2.51^[a]. Further, the “% efficacy” value in series [4] was 78%. As to `CCCCCC(=O)Nc1cccc(CON=C(c2ncccn2)c2noc(=O)n2C)n1` [Example 60], the LogP in series [3] is 2.61^[a]. Further, in series [4], the “% efficacy” value was 90%. For `CCCCCC(=O)Nc1cccc(CON=C(c2cccnc2)c2nc(=O)on2C)n1` [Example 63] the same measures were 2.39^[a] and 75%. The like results for `Cn1c(C(=NOCc2csc(NC(=O)COc3ccccc3)n2)c2ccsc2)noc1=O` [Example 67] were, in that order, 3.22^[a] and 98%. On to `Cn1c(C(=NOCc2csc(NC(=O)C3CCc4ccccc4O3)n2)c2ccsc2)noc1=O` (stereo not drawn) [Example 69], for which the LogP in series [3] was 3.62^[a]. The “% efficacy” value in series [7] is recorded as 92%; in series [4] it was 75%.

Turning to `CCCC(C)C(=O)Nc1nc(CON=C(c2ccsc2)c2noc(=O)n2C)cs1` (stereo not drawn) [Example 71], the LogP in series [3] is 3.39^[a]. In series [4], the “% efficacy” value is recorded as 100%.

In the case of `CCCCCC(=O)Nc1nc(CON=C(c2ccsc2)c2noc(=O)n2C)cs1` [Example 73], the LogP in series [3] is 3.43^[a]. Also, the “% efficacy” value in series [4] was 100%. The like results for `CCCCCOC(=O)Nc1nc(CON=C(c2cccs2)c2noc(=O)n2C)cs1` [Example 74] were, in that order, 3.79^[a] and 85%. As for `CC(Oc1ccccc1)C(=O)Nc1nc(CON=C(c2cccs2)c2noc(=O)n2C)cs1` (stereo not drawn) [Example 80], in series [3], the LogP was 3.42^[a]. Also, the “% efficacy” value in series [7] and in series [4] was 100% in each case. On to `CCCCOC(=O)Nc1cccc(CON=C(c2ccncc2)c2noc(=O)n2C)n1` [Example 82], for which the LogP in series [3] is 2.80^[a]. In addition, the “% efficacy” value in series [4] is reported as 100%. Regarding `CCCCC(=O)Nc1cccc(CON=C(c2ccncc2)c2noc(=O)n2C)n1` [Example 83], the LogP in series [3] is 2.34^[a]. For the same compound, the “% efficacy” value in series [4] is on record as 100%. The like results for `CCCCCC(=O)Nc1cccc(CON=C(c2ccncc2)c2noc(=O)n2C)n1` [Example 84] were, in that order, 2.71^[a] and 100%. The compound `CC(C)(C)OC(=O)Nc1cccc(CO/N=C(\C#N)c2ccccn2)n1` [Example IV-02, tert-butyl {6-[({[(Z)-cyano(pyridin-2-yl)methylene]amino}oxy)methyl]pyridin-2-yl}carbamate] displayed a chromatographic logP in series [1] of 3.5. The same measure, in the same setting: with `CC(C)(C)OC(=O)Nc1cccc(CON=C(C#N)c2cccnc2)n1` [Example IV-07, tert-butyl {6-[({[cyano(pyridin-3-yl)methylene]amino}oxy)methyl]pyridin-2-yl}carbamate] the figure was 3.19; with `CC(C)(C)OC(=O)Nc1cccc(CON=C(C(N)=NO)c2cccnc2)n1` [Example V-03, tert-butyl {6-[({[2-amino-2-(hydroxyimino)-1-(pyridin-3-yl)ethylidene]amino}oxy)methyl]pyridin-2-yl}carbamate], 1.81; with `CN(O)C(=N)/C(=N\OCc1cccc(NC(=O)OC(C)(C)C)n1)c1ccccn1` [Example VI-01, tert-butyl (6-{[({(1Z)-2-[hydroxy(methyl)amino]-2-imino-1-(pyridin-2-yl)ethylidene}amino)oxy]methyl}pyridin-2-yl)carbamate], 1.54.
